Laboratory results as given in PubChem BioAssay (NCI).
Values joined by “and” are separate entries in the source; they are usually repeats but may differ in a detail not shown here. Equal values may be shown once.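 96-well plates; 48 h exposure; 5 concentrations. Endpoints by linear interpolation between flanking doses. Not reached: highest tested concentration assigned. GI50: concentration for 50% inhibition of growth. TGI: total growth inhibition.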

Columns and labels:
Assay in all cases: NCI tumour cell line growth inhibition, 48 h
HL-60(TB) leukemia = system: HL-60(TB) leukemia
BT-549 breast = system: BT-549 breast
NCI/ADR-RES ovarian = system: NCI/ADR-RES ovarian
UACC-62 melanoma = system: UACC-62 melanoma
PC-3 prostate = system: PC-3 prostate
CCRF-CEM leukemia = system: CCRF-CEM leukemia
UO-31 renal = system: UO-31 renal
SK-MEL-5 melanoma = system: SK-MEL-5 melanoma
RPMI-8226 leukemia = system: RPMI-8226 leukemia
SF-539 CNS = system: SF-539 CNS

Structure (SMILES)	TGI (HL-60(TB) leukemia) [µM]	TGI (BT-549 breast) [µM]	TGI (NCI/ADR-RES ovarian) [µM]	TGI (UACC-62 melanoma)	TGI (PC-3 prostate) [µM]	TGI (CCRF-CEM leukemia) [µM]	TGI (UO-31 renal)	TGI (SK-MEL-5 melanoma)	TGI (RPMI-8226 leukemia)	TGI (SF-539 CNS) [µM]	GI50 (CCRF-CEM leukemia) [µM]
COc1ccc(CC(O)CN2CCOCC2)cc1 (stereo unspecified)	> 100	> 100	> 100	> 100 µM	> 100	> 100	> 100 µM	> 100 µM	–	–	–
Cc1cn(C2OC(C)(CO)C(O)C2O)c(=O)[nH]c1=O (stereo unspecified)	–	–	–	> 100 µM	–	> 100	> 100 µM	> 100 µM	> 100 µM	> 100	–
c1ccc2sc(SCSc3nc4ccccc4s3)nc2c1	–	> 100	> 100	> 100 µM	> 100	> 100	> 100 µM	> 100 µM	> 100 µM	–	–
Cc1c(C(=O)CSc2nc3ccccc3c(=O)n2-c2ccccc2)c(=O)n(-c2ccccc2)n1C	> 100	–	–	–	–	> 100	79.4 µM	> 100 µM	> 100 µM	> 100	–
COc1cc(C2CC(C)(Nc3ccccc3)Oc3cc4c(cc32)OCO4)cc(OC)c1OC (stereo unspecified)	–	> 100	–	> 100 µM	> 100	3.72	34.2 µM	8.01 µM	50.1 µM	0.477	–
CC(O)C1CC1(CO)CNc1cc(Cl)nc(N)n1 (stereo unspecified)	> 100	> 100	> 100	–	> 100	> 100	> 100 µM	> 100 µM	> 100 µM	> 100	–
CC(C(=O)n1nnc2ccccc21)N(c1ccccc1)c1ccccc1 (stereo unspecified)	> 100	–	–	> 100 µM	–	> 100	> 100 µM	> 100 µM	> 100 µM	> 100	–
Cc1cc2[nH]c3[nH]c(=O)[nH]c(=O)c3c2cc1C	–	> 100	> 100	> 100 µM	–	> 100	> 100 µM	> 100 µM	> 100 µM	> 100	–
CN(C)C(=S)S	–	> 100	> 100	> 100 µM	> 100	–	> 100 µM	> 100 µM	> 78.9 µM	> 100	–
CCOC(=O)/C=C(\C)c1ccc(C)cc1C	11.9	–	–	–	–	> 100	> 100 µM	> 100 µM	68.2 µM	> 100	–
CCCCC1c2c([nH]c3ccccc23)C2C(=O)N(c3ccc(OC)cc3)C(=O)C2C1CCC (stereo unspecified)	5.45	–	5.68	6.77 µM	7.46	9.12	> 10 µM	> 10 µM	8.99 µM	5.11	–
CO[C@]12CC(=O)C3(C(C[C@H]4CC5CC=C6C[C@@H](OC(C)=O)CC[C@]6(OC(C)=O)C5C[C@@]43C)C1)C1C[C@H]3[C@@H]4CC=C5C[C@@H](OC(C)=O)CC[C@]5(OC(C)=O)[C@H]4CC[C@]3(C)C12 (stereo partly specified)	> 100	–	51.3	79 µM	> 100	> 100	52.6 µM	14.7 µM	> 100 µM	37.2	–
Cc1c2c(n(CCc3ccc(Cl)cc3)c1C)NN=C(C#N)S2(=O)=O	–	–	> 100	> 100 µM	> 100	–	> 100 µM	> 100 µM	> 100 µM	> 100	–
C=CCn1c(=O)ccn(COCCO)c1=O	> 100	> 100	> 100	–	> 100	> 100	> 100 µM	> 100 µM	> 100 µM	> 100	–
O=C(NCCCN(CCCCN(CCCNC(=O)C(F)(F)F)Cc1ccccc1)Cc1ccccc1)C(F)(F)F	36.3	28.1	30.1	30.6 µM	–	51.7	17.4 µM	14.9 µM	40.5 µM	26.3	–
C=CCNC(=S)/N=C/c1c(O)c2ccccc2oc1=O	> 100	–	–	> 100 µM	–	> 100	> 100 µM	> 100 µM	> 100 µM	> 100	–
COc1cc(C2SCC(=O)N2c2ccc(NC(=O)c3ccc(N4C(=O)CSC4c4cc(OC)c(OC)c(OC)c4)cc3)cc2)cc(OC)c1OC (stereo unspecified)	–	> 100	70.6	76.6 µM	> 100	> 100	> 100 µM	> 100 µM	> 100 µM	> 100	–
CN(C)c1nc(=NCc2ccccc2)ss1	> 8.45	–	> 10	> 10 µM	> 10	4.66	> 10 µM	> 10 µM	> 10 µM	> 10	–
O=C1CN2C(c3ccccc3)=NN(c3ccc([N+](=O)[O-])cc3)C2(c2ccccc2)c2cc(Cl)ccc2N1CC1CC1 (stereo unspecified)	–	> 100	> 100	> 100 µM	> 100	> 100	> 100 µM	> 100 µM	> 100 µM	> 100	–
C1=CC2=CC=CC3c4nc5ccc6ccccc6c5nc4C(=C1)C23 (stereo unspecified)	> 100	–	> 100	> 100 µM	> 100	> 100	> 100 µM	> 100 µM	> 100 µM	> 100	–
O=[N+]([O-])/C(C(Cl)=C(Cl)Cl)=C(\Nc1cccc2cccnc12)SCc1ccccc1	–	35.6	51.7	63.7 µM	36.5	97.4	38.1 µM	–	> 100 µM	32.6	–
C/C=C/C=C/c1nc(C#N)c(N)o1	–	> 100	> 100	> 100 µM	> 100	> 100	> 100 µM	–	> 100 µM	> 100	–
O=c1ccc2cc3ccc4cccc5ccc(c2o1)c3c45	> 100	–	–	> 100 µM	–	> 100	44.9 µM	> 100 µM	> 100 µM	21.9	–
CC[C@H]1CN2CCc3cc(OC)c(OC)cc3[C@@H]2C[C@@H]1C[C@H]1NCCc2cc(OC)c(OC)cc21	–	0.658	0.502	0.206 µM and 0.0957 µM	0.103	0.0656	0.242 µM and 0.978 µM	0.0701 µM and 0.0855 µM	0.151 µM and 0.0175 µM	–	0.0215
O=C1/C(=C\c2cccc(Oc3ccccc3)c2)S(=O)(=O)C(c2ccccc2)N1Cc1ccccc1 (stereo unspecified)	57.7	98.6	45	57.7 µM	> 100	> 100	47.9 µM	39.3 µM	–	> 100	–
